# According to the RepoRT retention time repository (doi:10.1016/j.chroma.2019.01.023):
# Experiment: HILIC, Merck SeQuant ZIC-pHILIC, 150 × 2.1 mm, 5 µm, 40 °C, 0.3 mL/min, estimated dead time 1.1 min; A: acetonitrile; B: water + 2.8 mM ammonium formate, pH 9; gradient (min/%B) 0/5 1/5 10/51 13/51 13.1/5 20/5
# Details: stereoisomer not certain
row,SMILES,LC retention time
1,O=C([O-])c1ccccn1 [PICOLINATE],6.41 min
2,CC(C)=CCCC(C)=CCOP(=O)(O)OP(=O)(O)O [GERANYL-PP],8.32 min
3,CC(C)=CC(=O)SCCNC(=O)CCNC(=O)C(O)C(C)(C)COP(=O)(O)OP(=O)(O)OCC1OC(n2cnc3c(N)ncnc32)C(O)C1OP(=O)(O)O (stereo not given) [3-METHYLCROTONYL-COA],7.95 min
4,Nc1nc2c(ncn2C2CC(O)C(COP(=O)(O)OP(=O)(O)OP(=O)(O)O)O2)c(=O)[nH]1 (stereo not given) [DGTP],11.1 min
5,O=P(O)(O)OCC(O)CO (stereo not given) [GLYCEROL 3-PHOSPHATE],8.79 min
6,NC(CSSCC(N)C(=O)O)C(=O)O (stereo not given) [CYSTINE],10.3 min
7,CC(O)(CC(=O)O)CC(=O)SCCNC(=O)CCNC(=O)C(O)C(C)(C)COP(=O)(O)OP(=O)(O)OCC1OC(n2cnc3c(N)ncnc32)C(O)C1OP(=O)(O)O (stereo not given) [3-HYDROXY-3-METHYLGLUTARYL-COA],9.96 min
8,NC(CCC(=O)O)C(=O)O (stereo not given) [GLUTAMATE],8.69 min
9,NCC(=O)CCC(=O)O [5-AMINOLEVULINATE],9.28 min
10,O=C(O)c1ccccc1O [SALICYLATE],1.91 min
11,C=C(C)CCOP(=O)(O)OP(=O)(O)O [ISOPENTENYL PYROPHOSPHATE],8.52 min
12,O=C(O)CCCC(=O)C(=O)O [OXOADIPATE],8.87 min
13,OCC1OC(OCC2OC(OC3(CO)OC(CO)C(O)C3O)C(O)C(O)C2O)C(O)C(O)C1O (stereo not given) [RAFFINOSE],9.56 min
14,O=C(O)C(O)C(O)C(O)C(O)COP(=O)(O)O (stereo not given) [6-PHOSPHOGLUCONATE],10.3 min
15,NC(CS(=O)O)C(=O)O (stereo not given) [3-SULFINOALANINE],8.64 min
16,Nc1ncnc2c1ncn2C1OC(COP(=O)(O)OP(=O)(O)OC2OC(CO)C(O)C(O)C2O)C(O)C1O (stereo not given) [ADP-GLUCOSE],9.12 min
17,O=C(O)C(O)C(O)C(O)C(O)CO (stereo not given) [GLUCONATE],8.5 min
18,CC(=O)NC(CCCCN)C(=O)O (stereo not drawn) [N-ALPHA-ACETYLLYSINE],8.76 min
19,C=CC(=O)[O-] [2-PROPENOATE],2.13 min
20,COC(=O)c1ccc(O)c(OC)c1 [METHYL VANILLATE],1.47 min
21,Nc1ccn(C2CC(O)C(COP(=O)([O-])OP(=O)([O-])[O-])O2)c(=O)n1 (stereo not given) [DEOXYCYTIDINE-DIPHOSPHATE],9.8 min

row,SMILES,LC retention time
1,O=C1OC(C(O)CO)C(O)=C1O (stereo not given) [ASCORBATE],8.49 min
2,O=c1ccn(C2OC(COP(=O)(O)O)C(O)C2O)c(=O)[nH]1 (stereo not given) [URIDINE MONOPHOSPHATE],8.67 min
3,O=C(O)CC(C(=O)O)C(O)C(=O)O (stereo not given) [ISOCITRATE],10.5 min
4,NC(CCSSCCC(N)C(=O)O)C(=O)O (stereo not given) [HOMOCYSTINE],9.92 min
5,O=C(O)C(=O)Cc1c[nH]c2ccccc12 [INDOLE-3-PYRUVATE],5.17 min
6,O=CC(O)COP(=O)(O)O (stereo not given) [GLYCERALDEHYDE 3-PHOSPHATE],6.24 min
7,O=C(O)c1ccccc1 [BENZOATE],1.41 min
8,NC(CS)C(=O)NCC(=O)O (stereo not given) [CYS-GLY],8.8 min
9,NC(=O)C1=CN(C2OC(COP(=O)(O)OP(=O)(O)OCC3OC(n4cnc5c(N)ncnc54)C(OP(=O)(O)O)C3O)C(O)C2O)C=CC1 (stereo not given) [NADPH],10.1 min
10,Nc1nc2c(ncn2C2OC(COP(=O)(O)OP(=O)(O)OP(=O)(O)O)C(O)C2O)c(=O)[nH]1 (stereo not given) [GUANOSINE TRIPHOSPHATE],11.5 min
11,Nc1nc2c(ncn2C2OC(COP(=O)(O)OP(=O)(O)OC3OC(CO)C(O)C(O)C3O)C(O)C2O)c(=O)[nH]1 (stereo not given) [GUANOSINE DIPHOSPHATE MANNOSE],10.2 min
12,NCCP(=O)(O)O [(2-AMINOETHYL)PHOSPHONATE],9.6 min
13,O=c1[nH]cnc2c1ncn2C1OC(COP(=O)([O-])OP(=O)([O-])O)C(O)C1O (stereo not given) [INOSINE 5'-DIPHOSPHATE],9.98 min
14,N[C@H](C(=O)O)c1ccc(O)cc1 [4-HYDROXY-L-PHENYLGLYCINE],9.02 min
15,Nc1nc2c(c(=O)[nH]1)N=C(CNc1ccc(C(=O)NC(CCC(=O)O)C(=O)O)cc1)CN2 (stereo not given) [DIHYDROFOLATE],8.81 min
16,O=P(O)(O)OC(CO)CO [BETA-GLYCEROPHOSPHATE],8.57 min
17,O=c1ccn(C2CC(O)C(COP(=O)(O)OP(=O)(O)OP(=O)(O)O)O2)c(=O)[nH]1 (stereo not given) [DEOXYURIDINE TRIPHOSPHATE],10.5 min
18,Nc1ncnc2c1ncn2C1OC(COP(=O)(O)OP(=O)(O)OCC2OC(O)C(O)C2O)C(O)C1O (stereo not given) [ADENOSINE DIPHOSPHATE RIBOSE],9.14 min
19,OCC1OC(OCC2OC(O)(CO)C(O)C2O)C(O)C(O)C1O (stereo not given) [PALATINOSE],8.8 min
20,CC(O)C(=O)O (stereo not given) [LACTATE],1.54 min

# Experiment: HILIC, Waters ACQUITY UPLC BEH Amide, 150 × 2.1 mm, 1.7 µm, 40 °C, 0.5 mL/min, estimated dead time 0.66 min; A: 5% water + 95% acetonitrile; B: 70% water + 30% acetonitrile + 10 mM ammonium formate, pH 6.5; gradient (min/%B) 0/0 2/0 20/70 23/70 24/0 31/0
# Details: stereoisomer not certain
row,SMILES,LC retention time
1,CCCCCCCCCCCCCCCC(O)C(N)CO (stereo not given) [SPHINGANINE],5.14 min
2,O=C1CCCCO1 [5-VALEROLACTONE],1.14 min
3,C[N+](C)(C)CC(=O)[O-] [BETAINE],7.63 min
4,NC(CC(=O)O)C(=O)O (stereo not given) [ASPARTATE],1.93 min
5,CC12CCC(O)CC1CCC1C2C(O)CC2(C)C1CCC2(O)C(=O)CO (stereo not given),0.99 min
6,C[n+]1cccc(C(=O)[O-])c1 [TRIGONELLINE],7.85 min
7,NCCc1ccc(O)cc1 [TYRAMINE],7.72 min
8,"C[N+](C)(C)CCCCC(N)C(=O)O (stereo not given) [N,N,N-TRIMETHYLLYSINE]",0.83 min
9,COc1ccccc1O [GUAIACOL],0.89 min
